{
  "source": "patent US10392649B2",
  "about": "“Biosensors that detect NAD+” (Oregon Health & Science University, priority 2014, dated 2019)",
  "key": {"[1]": {"target": "T1, NAD+ sensor (Enterococcus faecalis, UniProt Q837V6, D286N/K120L)", "T1 construct": "HA (N); made in house; host or cells: HEK293T", "T1 sequence (Q837V6 other isoform, or with tags, fused parts or gaps K120L/D286N)": "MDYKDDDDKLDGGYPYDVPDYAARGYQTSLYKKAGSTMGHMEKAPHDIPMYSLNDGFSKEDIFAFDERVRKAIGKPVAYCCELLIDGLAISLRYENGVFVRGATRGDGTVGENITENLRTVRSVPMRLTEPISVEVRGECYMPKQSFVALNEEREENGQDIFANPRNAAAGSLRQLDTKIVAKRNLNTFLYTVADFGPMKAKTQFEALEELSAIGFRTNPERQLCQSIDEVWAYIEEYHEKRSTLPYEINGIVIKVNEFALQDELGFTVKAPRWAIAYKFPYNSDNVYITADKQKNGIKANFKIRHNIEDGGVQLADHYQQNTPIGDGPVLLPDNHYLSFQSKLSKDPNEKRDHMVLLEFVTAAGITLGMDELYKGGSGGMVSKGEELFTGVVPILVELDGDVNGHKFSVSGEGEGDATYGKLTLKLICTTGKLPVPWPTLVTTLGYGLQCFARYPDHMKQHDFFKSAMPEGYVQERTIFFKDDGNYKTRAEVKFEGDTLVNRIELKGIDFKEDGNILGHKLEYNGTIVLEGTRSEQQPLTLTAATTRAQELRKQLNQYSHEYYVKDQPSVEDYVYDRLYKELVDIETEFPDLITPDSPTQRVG", "test": "Specificity of the sensor: fluorescence with related mononucleotides, dinucleotides and NAD+ precursors", "assay_type": "binding", "conditions": "purified sensor", "method": "To determine the specificity of the sensor for NAD+, sensor fluorescence was evaluated in the presence of related mononucleotides, dinucleotides, and NAD+ precursors (FIG. 14G). […] Thus, pH effects can be accommodated by normalizing to cpVenus. […] (FIG. 24A, 24B, 24C).\n(§1) Steady-state fluorescence intensity measurements were performed using a Photon Technology International Quanta Master fluorimeter. Excitation spectra were monitored at 530 nm and emission spectra were measured by excitation at 488 nm and 405 nm. Slit widths used gave 8 nm bandpass for excitation and 44 nm bandpass for emission. Absorbance spectroscopy was performed on a Shimadzu 1601 spectrophotometer. Temperature was controlled with a water jacket and monitored using an Omega Thermistor."}, "[2]": {"test_system": "HeLa cells", "test": "NR in HeLa cells treated with siNAMPT, cytoplasmic sensor", "assay_type": "cell-based", "conditions": "NR 1 mM, 24 hours", "method": "In further experiments, siRNAs that target NAMPT were added to the cells (FIG. 15D). […] Importantly, nicotinamide riboside (NR) increased NAD+ levels in these cells through a parallel pathway that utilizes NR kinase to bypass NAMPT (Bieganowski P and Brenner C, Cell 117, 495-502 (2004); incorporated by reference herein) (FIG. 15E).\nLive cell imaging was done on a fully motorized Nikon TiE stand with a Yokogawa W1 spinning disk confocal unit. Instrumentation for this project included a motorized stage in x and y for point-revisiting; z-axis control for fast piezo-based positioning and continuous focus-drift compensation for live cell imaging; dual-pinhole array for improved optical sectioning, a high powered Agilent laser launch; split simultaneous acquisition on two Andor Zyla 5.5 sCMOS cameras; and a 100×1.49 Apo TIRF objective. During imaging, cells were maintained in 5% CO2 at 34° C. Cells were excited at 488 nm and monitored with emission 525/25 nm. For each condition, at least 5 fields containing approximately 50-100 cells were used for quantification of pixel intensity using Metamorph software. The mean intensity per field of each siRNA was normalized to the scramble condition to obtain the normalized intensity measurement."}, "[3]": {"target": "T2, cytoplasmic sensor (Enterococcus faecalis, UniProt Q837V6, D286N/K120L)", "T2 construct": "expressed in transfected cells; HeLa cells were also used", "T2 sequence (Q837V6 other isoform, or with tags, fused parts or gaps K120L/D286N)": "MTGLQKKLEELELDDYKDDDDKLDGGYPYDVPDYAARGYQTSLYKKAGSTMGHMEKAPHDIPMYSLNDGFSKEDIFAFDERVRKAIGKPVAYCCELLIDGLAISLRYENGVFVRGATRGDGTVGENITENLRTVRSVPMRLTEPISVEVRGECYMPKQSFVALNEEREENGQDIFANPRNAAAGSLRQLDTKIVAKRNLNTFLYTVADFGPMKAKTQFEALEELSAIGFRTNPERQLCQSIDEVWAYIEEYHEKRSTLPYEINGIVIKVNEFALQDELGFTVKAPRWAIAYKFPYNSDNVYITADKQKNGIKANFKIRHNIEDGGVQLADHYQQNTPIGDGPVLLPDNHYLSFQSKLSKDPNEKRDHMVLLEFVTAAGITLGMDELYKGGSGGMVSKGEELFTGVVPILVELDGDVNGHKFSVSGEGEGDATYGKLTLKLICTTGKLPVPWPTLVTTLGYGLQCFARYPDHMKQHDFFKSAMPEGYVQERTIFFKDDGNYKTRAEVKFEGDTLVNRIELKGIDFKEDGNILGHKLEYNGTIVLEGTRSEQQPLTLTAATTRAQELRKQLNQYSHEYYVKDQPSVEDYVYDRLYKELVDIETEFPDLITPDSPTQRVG", "test": "NR effect on cytoplasmic sensor fluorescence when NMNAT2 was depleted", "assay_type": "cell-based", "conditions": "NR 1 mM, 24 hours", "source_text": "FIG. 28 is a bar graph showing that Nicotinamide riboside (NR) has no direct effect on the fluorescence of the cytoplasmic sensor. The cytoplasmically-localized sensor reported a decrease of cytoplasmic NAD+ following depletion of NMNAT2."}, "[4]": {"test_system": "HeLa cells", "test": "NR rescue of mitochondrial NAD+ in HeLa cells depleted of NMNAT2", "assay_type": "cell-based", "conditions": "NR 1 mM, 24 hours, NMNAT2 depletion", "source_text": "To confirm this, HeLa cells, which contain very low levels of NMNAT3, were examined. […] Despite its low expression, NMNAT2 was active in HeLa cells, as its depletion decreased cytoplasmic NAD+ (FIG. 38). […] (FIG. 17B). This depletion was not rescued by addition of NR, implying that cytoplasmic NAD+, and not NMN, is responsible for maintaining mitochondrial NAD+ levels in HeLa cells (FIG. 17B). Thus, there appear to be multiple mechanisms for maintaining mitochondrial NAD+ in different cell types; conversion of NMN by NMNAT3 and active transport of cytoplasmic NAD+. An NAD+ transporter has been identified in bacteria (Haferkamp I et al, Nature 432, 622-625 (2004); incorporated by reference herein), yeast (Todisco S et al, J Biol Chem 281, 1524-1531 (2006); incorporated by reference herein), and plants (Palmieri F et al, J Biol Chem 284, 31249-31259 (2009); incorporated by reference herein), although a mammalian homologue has not yet been identified.\n(§2) Live cell imaging was done on a fully motorized Nikon TiE stand with a Yokogawa W1 spinning disk confocal unit. […] Cells were excited at 488 nm and monitored with emission 525/25 nm. For each condition, at least 5 fields containing approximately 50-100 cells were used for quantification of pixel intensity using Metamorph software. […]"}, "[5]": {"test": "Fluorescence spectroscopy of purified sensor with NAD+ (cell free)", "assay_type": "binding", "conditions": "for effect of NAD+ on fluorescence (ex. 488 nm): purified protein, NAD+ concentrations up to 1 mM", "method": "Fluorescence emission spectra were recorded using a PTI steady-state fluorescence spectrophotometer. Excitation spectra were captured at 530 nm while exciting from 350 to 515 nm. Emission spectra were measured by excitation at 405 nm or 488 nm while scanning the fluorescence intensity of 475 to 600 nm.\nThe sensors and controls were purified in batch format from mammalian HEK293T cells via their N-terminal Flag epitope tag, using anti-Flag M2 Affinity Gel (Sigma) and lysis buffer (50 mM Tris pH 7.4, 150 mM NaCl, 1 mM EDTA, 10 mM NaF, 0.5% NP-40, 1 mM DTT, and Complete Protease Inhibitor cocktail). Protein was eluted with 500 μg/mL 3× Flag peptide and dialyzed against 100 mM Tris pH 7.4, 150 mM NaCl, 0.5 mM DTT, 100 μM PMSF, 1 mM EDTA, and 50% glycerol. Bradford assays were used to quantify the concentration in each batch and aliquots were flash frozen in liquid nitrogen for storage at −80° C.\nas §1"}, "[6]": {"test": "NAD+ washout (reversibility of binding to purified sensor)", "conditions": "500 μM NAD+, elution over buffer exchange column", "method": "Purified sensor (2 μM) was incubated with either 0μ or 500 μM NAD+ in a total of 75 μL and evaluated for its fluorescence excitation and emission spectra. Each sample was then passed over a pre-equilibrated (50 mM Tris pH 7.4, 150 mM NaCl) micro buffer exchange column (Biorad microbiospin P30), washed, and eluted in […] buffer volume for reevaluation of fluorescence."}, "[7]": {"test": "Fluorescence lifetime measurements of the sensor", "conditions": "488 nm excitation", "method": "Fluorescence lifetime measurements were performed on a PicoQuant FluoTime 200 time correlated single photon counting instrument (PicoQuant, Berlin), outfitted with a Hamamatsu micro-channel plate detector. Decays were measured with the polarizers at the magic angle and with 16 nm bandpass emission slits. […] Emission from the samples was collected at 525 nm, with an additional 520 nm long-pass filter on the detector side of the sample. The fluorescence decays were fit by means of PicoQuant software, using an exponential decay model [I(t)=Σi-1^nAie^−t/τ^i] where A, is the amplitude of the i^th component, in counts, in the first range fitting channel and τi is the lifetime of the i^th component."}, "[8]": {"test_system": "HEK293T", "test": "NAD+ depletion by FK866 in HEK293T lines expressing localized sensors, live flow cytometry", "assay_type": "cell-based", "conditions": "10 nM FK866, 18 hours; nuclear, cytoplasmic, mitochondrial sensors", "method": "(§3) Localization sequences were used to direct the sensor to the nucleus, cytoplasm, and mitochondria (FIG. 15A and FIG. 25A, 25B, 25C). […] Mammalian cells predominantly rely on the NAMPT-dependent salvage pathway for NAD+ biosynthesis (Revollo et al, 2004 supra), and presumably all subcellular compartments would be affected by NAMPT inhibition. To test this idea, clonal HEK293T lines stably expressing the localized sensors or their corresponding cpVenus control were generated. Cells were treated with FK866, a potent inhibitor of NAMPT, and NAD+ depletion in different compartments was monitored by live flow cytometry (FIG. 15B). FK866 increased sensor fluorescence in all compartments, indicating a reduction in NAD+ levels. Fluorescence was also monitored in cells expressing the cytoplasmic sensor using live microscopy (FIG. 15C). […]\n(§4) Data was collected on a special order BD LSRFortessa using 488-1 (Ex. 488 nm, Em. 525/50) and 405-2 (ex. 405 nm, Em. 515/20) for the sensor, and Ex. 561-3 (ex. 561, em 670/30) for PI intensity. Cells were gated to exclude debris, a standard doublet-exclusion was performed, and 1×10^4 fluorescent cells were evaluated per condition. Data were analyzed and plotted with FlowJo X. Sensor 488/405 ratiometric values were normalized to the appropriate cpVenus and experimental controls. […]"}, "[9]": {"test_system": "HEK293T cells", "test": "NAD+ depletion by FK866 in cells expressing cytoplasmic sensor, live microscopy", "assay_type": "cell-based", "method": "as §3, with “15C). Treatment with FK866 began to decrease NAD+ levels in the majority of cells within 1 hour; by 3 hours pockets of NAD+ decreases were observed, which spread throughout the cytoplasm.” for “15C).”\nas §2"}, "[10]": {"test_system": "HEK293T cells", "test": "HPLC of perchlorate extracted NAD+ from HEK293T cells", "assay_type": "cell-based", "conditions": "10 nM FK866, 16 hours", "method": "FIG. 6A is a set of three HPLC spectra from 10 μM purified NAD^+ standard compared to perchlorate extracted NAD^+ from HEK293T cells treated with 0 nM (middle) or 10 nM (bottom) FK866 for 16 hours. Note that NAD^+ is recovered from untreated cells while it is depleted in FK866 treated cells."}, "[11]": {"test": "Calibration of cytoplasmic sensor in digitonin permeabilized HEK293T cells, flow cytometry", "assay_type": "cell-based", "method": "The free NAD+ concentration in the nucleus and cytoplasm has been debated. To calibrate the sensor, cells were permeabilized with digitonin to allow internal NAD+ levels to equilibrate with concentrations external to the cell and fluorescence monitored by flow cytometry. Equilibration was assessed using propidium iodide (PI), whose molecular weight is similar to that of NAD+ (FIG. 29). […] The mean of the fluorescence ratio (488/405 nm) for the cytoplasmic sensor in non-permeabilized HEK293T cells relative to cpVenus was interpolated to reveal a free NAD+ value of 105.8 μM (95% Cl, 92.3 μM to 121.7 μM). […] To confirm these calculations, flow cytometry was used to examine the fluorescence of the cytoplasmic sensor in populations of HeLa cells that were partially permeabilized (FIG. 16B). When equilibrated with either 500 μM or 1 mM NAD+, cytoplasmic fluorescence of the permeabilized cell population decreased, indicating an increase in NAD+. In contrast, equilibration with media containing no external NAD+ increased fluorescence, likely due to NAD+ diffusion. […]\nas §4, with “condition.” for “condition. Data were analyzed and plotted with FlowJo X. Sensor 488/405 ratiometric values were normalized to the appropriate cpVenus and experimental controls.”"}, "[12]": {"test": "Competition for free NAD+ with GAPDH, sensor fluorescence in real time", "assay_type": "binding", "conditions": "equimolar GAPDH, absence of substrate, 10 μM NAD+", "method": "Fluorescence emission of […] purified sensor was monitored at 520 nm following excitation at 488 nm over time. Three 1-second exposures were obtained every 30 seconds at 20° C. in 100 mM HEPES pH7.4, 150 mM NaCl, 10 mM MgCl2. At the 240 timepoint, NAD+ was added to a final concentration of 10 μM; at the 600 second timepoint, full-length active human GAPDH (AbCam) was added to a final concentration of 11.7 μM. Fluorescence measurements were corrected for dilution factor. Mean±SD, n=2."}},
  "data": [
    {"molecule": "NC(=O)c1ccc[n+]([C@@H]2O[C@H](CO)[C@@H](O)[C@H]2O)c1", "note": "[NR, nicotinamide riboside]", "values": [
      {"measurement": "effect of substrate on sensor fluorescence / recognition by the sensor", "setting": "[1]", "result": "not recognized"},
      {"measurement": "NAD+ levels", "setting": "[2]", "result": "increased"},
      {"measurement": "nonspecific effect on sensor fluorescence", "setting": "[3]", "result": "did not alter"},
      {"measurement": "rescue of decreased mitochondrial NAD+", "setting": "[4]", "result": "not rescued"}
    ]},
    {"molecule": "sensor: NAD+ biosensor polypeptide: FLAG, HA, LigA 78-317 fragment, cpVenus, linker, LigA 2-70 fragment", "values": [
      {"measurement": "change in the Kd value with temperature", "setting": "[5]; between 20-37° C.", "result": "no significant changes"},
      {"measurement": "Kd", "setting": "[5]; in vitro, purified sensor, 488 nm, read-out: apparent Kd(NAD+)", "result": "~65", "unit": "µM"},
      {"measurement": "NAD+-dependent responses across pH", "setting": "[5]; pH 6.5-8.0", "result": "similar"},
      {"measurement": "effect of NAD+ on fluorescence (ex. 488 nm)", "setting": "[5]", "result": "decreased"},
      {"measurement": "effect of NAD+ binding on second excitation peak at 405 nm", "setting": "[5]; purified sensor", "result": "unaffected"},
      {"measurement": "reversibility of NAD+ binding", "setting": "[6]", "result": "reversible"},
      {"measurement": "effect of NAD+ on fluorescence lifetime", "setting": "[7]", "result": "did not affect"}
    ]},
    {"molecule": "O=C(/C=C/c1cccnc1)NCCCCC1CCN(C(=O)c2ccccc2)CC1", "note": "[FK866]", "values": [
      {"measurement": "sensor fluorescence in all compartments (indicating reduction in NAD+ levels)", "setting": "[8]", "result": "increased"},
      {"measurement": "time at which NAD+ levels began to decrease in the majority of cells", "setting": "[9]", "result": "≤ 1", "unit": "h"},
      {"measurement": "NAD+ recovered by HPLC", "setting": "[10]", "result": "depleted"}
    ]},
    {"molecule": "cpVenus: circularly permuted version of Venus fluorescent protein, control", "values": [
      {"measurement": "effect of NAD+ on fluorescence (ex. 488 nm)", "setting": "[5]", "result": "minimally affected"},
      {"measurement": "effect of NAD+ on fluorescence in permeabilized cells", "setting": "[11]", "result": "minimally affected"}
    ]},
    {"molecule": "GAPDH: full-length active human glyceraldehyde 3-phosphate dehydrogenase (AbCam)", "values": [
      {"measurement": "sensor fluorescence upon GAPDH addition", "setting": "[12]", "result": "almost immediate recovery of fluorescence"}
    ]},
    {"molecule": "NC(=O)c1ccc[n+]([C@@H]2O[C@H](COP(=O)([O-])OP(=O)(O)OC[C@H]3O[C@@H](n4cnc5c(N)ncnc54)[C@H](O)[C@@H]3O)[C@@H](O)[C@H]2O)c1", "note": "[NAD+, nicotinamide adenine dinucleotide]", "values": [
      {"measurement": "effect of substrate on sensor fluorescence / recognition by the sensor", "setting": "[1]", "result": "decreased sensor fluorescence"}
    ]}
  ]
}
